Experimental data published in ChEMBL document CHEMBL4507260 (2021).

Tests used:
Settings in all cases: Compound concentration 1000.0 nM
[1] = target: Serine/threonine-protein kinase 32B (Homo sapiens) (UniProt Q9NY57)
[2] = target: STE20/SPS1-related proline-alanine-rich protein kinase (Homo sapiens) (UniProt Q9UEW8)
[3] = tested on: Serine/threonine-protein kinase B-raf (Homo sapiens), P15056 [V600E]
[4] = target: MAP/microtubule affinity-regulating kinase 4 (Homo sapiens) (UniProt Q96L34)
[5] = tested on: ALK tyrosine kinase receptor (Homo sapiens), Q9UM73 [L1196M]
[6] = tested on: Phosphatidylinositol 4,5-bisphosphate 3-kinase catalytic subunit alpha isoform (Homo sapiens), P42336 [Q546K]
[7] = target: RAC-beta serine/threonine-protein kinase (Homo sapiens) (UniProt P31751)
[8] = target: Interferon-induced, double-stranded RNA-activated protein kinase (Homo sapiens) (UniProt P19525)
Interferon-induced, double-stranded RNA-activated protein kinase (Homo sapiens), sequence (P19525 whole entry): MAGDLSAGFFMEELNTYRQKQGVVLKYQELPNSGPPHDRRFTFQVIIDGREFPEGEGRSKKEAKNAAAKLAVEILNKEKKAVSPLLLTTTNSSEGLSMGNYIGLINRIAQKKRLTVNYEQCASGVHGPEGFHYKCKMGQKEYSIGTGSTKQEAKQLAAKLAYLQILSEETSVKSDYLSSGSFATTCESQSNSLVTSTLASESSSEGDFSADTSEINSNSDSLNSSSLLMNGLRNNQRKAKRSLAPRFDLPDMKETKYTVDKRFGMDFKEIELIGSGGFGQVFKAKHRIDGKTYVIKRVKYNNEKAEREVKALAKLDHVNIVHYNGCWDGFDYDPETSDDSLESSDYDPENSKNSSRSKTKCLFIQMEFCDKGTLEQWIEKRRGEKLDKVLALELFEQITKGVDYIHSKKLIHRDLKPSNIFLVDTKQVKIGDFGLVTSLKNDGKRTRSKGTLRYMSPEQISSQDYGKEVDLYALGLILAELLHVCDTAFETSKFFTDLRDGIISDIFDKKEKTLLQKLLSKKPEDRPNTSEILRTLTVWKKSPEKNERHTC

[9] = target: Serine/threonine-protein kinase LATS2 (Homo sapiens) (UniProt Q9NRM7)
[10] = target: Rhodopsin kinase GRK1 (Homo sapiens) (UniProt Q15835)
[11] = target: RAC-gamma serine/threonine-protein kinase (Homo sapiens) (UniProt Q9Y243)
[12] = tested on: Receptor-type tyrosine-protein kinase FLT3 (Homo sapiens), P36888 [D835H]
[13] = target: Tyrosine-protein kinase Blk (Homo sapiens) (UniProt P51451)
[14] = target: Cyclin-dependent kinase 4 (Homo sapiens) (UniProt P11802)
Cyclin-dependent kinase 4 (Homo sapiens), sequence (P11802 whole entry): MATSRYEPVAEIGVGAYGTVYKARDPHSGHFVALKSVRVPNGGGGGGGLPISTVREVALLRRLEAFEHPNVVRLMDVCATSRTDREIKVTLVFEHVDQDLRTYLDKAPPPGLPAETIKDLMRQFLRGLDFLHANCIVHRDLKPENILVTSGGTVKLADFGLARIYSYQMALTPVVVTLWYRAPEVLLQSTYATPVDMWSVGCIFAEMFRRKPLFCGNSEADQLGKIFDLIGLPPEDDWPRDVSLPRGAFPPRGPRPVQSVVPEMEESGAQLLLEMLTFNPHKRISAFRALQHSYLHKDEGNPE

[15] = target: Serine/threonine-protein kinase 24 (Homo sapiens) (UniProt Q9Y6E0)
[16] = target: Cyclin-dependent kinase 2 homolog (Plasmodium falciparum (isolate 3D7)) (UniProt P61075)
[17] = target: Aurora kinase A (Homo sapiens) (UniProt O14965)
[18] = target: NUAK family SNF1-like kinase 2 (Homo sapiens) (UniProt Q9H093)
[19] = target: Tyrosine-protein kinase SYK (Homo sapiens) (UniProt P43405)
[20] = target: Dual specificity mitogen-activated protein kinase kinase 5 (Homo sapiens) (UniProt Q13163)
[21] = tested on: Tyrosine-protein kinase ABL1 (Homo sapiens), P00519 [H396P]
[22] = target: Casein kinase II subunit alpha' (Homo sapiens) (UniProt P19784)
[23] = target: Ribosomal protein S6 kinase alpha-1 (Homo sapiens) (UniProt Q15418)
Ribosomal protein S6 kinase alpha-1 (Homo sapiens), sequence (Q15418 whole entry, canonical isoform): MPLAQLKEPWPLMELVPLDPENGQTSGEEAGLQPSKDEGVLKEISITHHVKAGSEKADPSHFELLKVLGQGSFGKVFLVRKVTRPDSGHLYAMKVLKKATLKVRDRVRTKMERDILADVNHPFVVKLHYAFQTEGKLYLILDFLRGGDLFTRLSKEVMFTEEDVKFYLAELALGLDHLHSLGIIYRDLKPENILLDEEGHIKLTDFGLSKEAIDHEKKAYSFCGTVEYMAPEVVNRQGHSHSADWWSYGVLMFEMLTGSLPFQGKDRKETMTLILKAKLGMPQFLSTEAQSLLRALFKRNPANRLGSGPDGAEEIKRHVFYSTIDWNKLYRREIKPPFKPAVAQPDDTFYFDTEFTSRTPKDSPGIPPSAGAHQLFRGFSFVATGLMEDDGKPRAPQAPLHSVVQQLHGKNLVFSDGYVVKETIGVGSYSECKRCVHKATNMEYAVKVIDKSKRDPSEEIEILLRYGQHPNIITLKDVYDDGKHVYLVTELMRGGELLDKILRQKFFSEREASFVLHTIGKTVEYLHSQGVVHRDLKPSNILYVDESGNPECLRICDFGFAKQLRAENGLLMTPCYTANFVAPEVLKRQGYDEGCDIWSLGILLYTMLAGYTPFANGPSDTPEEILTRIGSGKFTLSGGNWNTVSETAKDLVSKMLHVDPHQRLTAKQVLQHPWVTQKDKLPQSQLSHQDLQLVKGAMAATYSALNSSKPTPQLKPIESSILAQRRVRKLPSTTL

[24] = target: Casein kinase I isoform epsilon (Homo sapiens) (UniProt P49674)
Casein kinase I isoform epsilon (Homo sapiens), sequence (P49674 whole entry, looked up, canonical isoform): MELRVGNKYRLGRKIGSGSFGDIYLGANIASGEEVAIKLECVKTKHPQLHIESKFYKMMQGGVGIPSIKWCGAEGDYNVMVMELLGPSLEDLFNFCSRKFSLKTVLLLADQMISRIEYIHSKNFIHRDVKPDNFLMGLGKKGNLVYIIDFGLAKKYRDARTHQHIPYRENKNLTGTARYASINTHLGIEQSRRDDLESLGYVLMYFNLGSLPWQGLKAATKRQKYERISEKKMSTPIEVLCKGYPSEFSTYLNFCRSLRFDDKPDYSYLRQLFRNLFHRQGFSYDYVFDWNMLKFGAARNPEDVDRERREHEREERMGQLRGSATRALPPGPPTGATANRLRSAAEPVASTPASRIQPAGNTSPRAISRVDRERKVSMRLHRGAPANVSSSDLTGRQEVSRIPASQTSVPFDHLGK

[25] = target: Fibroblast growth factor receptor 4 (Homo sapiens) (UniProt P22455)
[26] = target: Tyrosine-protein kinase receptor Tie-1 (Homo sapiens) (UniProt P35590)
[27] = target: Epidermal growth factor receptor (Homo sapiens) (UniProt P00533)
[28] = target: Serine/threonine-protein kinase Chk2 (Homo sapiens) (UniProt O96017)
Serine/threonine-protein kinase Chk2 (Homo sapiens), sequence (O96017 whole entry): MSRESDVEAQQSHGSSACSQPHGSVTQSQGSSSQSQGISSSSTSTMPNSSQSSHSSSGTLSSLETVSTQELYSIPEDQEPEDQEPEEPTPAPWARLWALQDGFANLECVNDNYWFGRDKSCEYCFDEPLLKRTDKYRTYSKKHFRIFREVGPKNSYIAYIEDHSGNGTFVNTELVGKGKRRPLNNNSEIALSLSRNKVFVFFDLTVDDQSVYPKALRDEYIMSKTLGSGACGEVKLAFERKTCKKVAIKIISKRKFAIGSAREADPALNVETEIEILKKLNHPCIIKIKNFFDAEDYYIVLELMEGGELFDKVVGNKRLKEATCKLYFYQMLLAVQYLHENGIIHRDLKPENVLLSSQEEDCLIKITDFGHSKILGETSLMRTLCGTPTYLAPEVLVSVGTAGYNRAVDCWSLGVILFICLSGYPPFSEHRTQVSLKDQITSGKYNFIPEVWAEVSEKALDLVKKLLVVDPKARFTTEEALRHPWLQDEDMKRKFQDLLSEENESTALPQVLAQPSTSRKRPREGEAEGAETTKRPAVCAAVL

[29] = target: Serine/threonine-protein kinase pim-2 (Homo sapiens) (UniProt Q9P1W9)
Serine/threonine-protein kinase pim-2 (Homo sapiens), sequence (Q9P1W9 whole entry, looked up): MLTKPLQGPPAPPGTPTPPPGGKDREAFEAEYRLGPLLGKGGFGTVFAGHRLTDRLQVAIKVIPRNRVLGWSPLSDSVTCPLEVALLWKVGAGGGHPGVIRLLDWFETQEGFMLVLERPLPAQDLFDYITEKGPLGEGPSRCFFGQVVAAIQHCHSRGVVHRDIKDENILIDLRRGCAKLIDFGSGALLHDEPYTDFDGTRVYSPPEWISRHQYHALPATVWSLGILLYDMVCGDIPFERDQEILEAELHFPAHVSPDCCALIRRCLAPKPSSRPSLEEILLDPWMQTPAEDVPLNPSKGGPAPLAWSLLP

[30] = target: Dual specificity mitogen-activated protein kinase kinase 3 (Homo sapiens) (UniProt P46734)
[31] = target: Mitogen-activated protein kinase kinase kinase kinase 2 (Homo sapiens) (UniProt Q12851)
[32] = target: Activin receptor type-1B (Homo sapiens) (UniProt P36896)
[33] = target: Serine/threonine-protein kinase D3 (Homo sapiens) (UniProt O94806)
[34] = target: MAP/microtubule affinity-regulating kinase 3 (Homo sapiens) (UniProt P27448)
[35] = target: 5'-AMP-activated protein kinase catalytic subunit alpha-1 (Homo sapiens) (UniProt Q13131)
[36] = target: Non-receptor tyrosine-protein kinase TNK1 (Homo sapiens) (UniProt Q13470)
[37] = target: Serine/threonine-protein kinase Nek9 (Homo sapiens) (UniProt Q8TD19)
[38] = target: Mitogen-activated protein kinase 14 (Homo sapiens) (UniProt Q16539)
[39] = target: Leukocyte tyrosine kinase receptor (Homo sapiens) (UniProt P29376)
[40] = target: Tyrosine-protein kinase CSK (Homo sapiens) (UniProt P41240)
[41] = tested on: Receptor-type tyrosine-protein kinase FLT3 (Homo sapiens), P36888 [D835Y]
[42] = target: Hepatocyte growth factor receptor (Homo sapiens) (UniProt P08581)
Hepatocyte growth factor receptor (Homo sapiens), sequence (P08581 whole entry): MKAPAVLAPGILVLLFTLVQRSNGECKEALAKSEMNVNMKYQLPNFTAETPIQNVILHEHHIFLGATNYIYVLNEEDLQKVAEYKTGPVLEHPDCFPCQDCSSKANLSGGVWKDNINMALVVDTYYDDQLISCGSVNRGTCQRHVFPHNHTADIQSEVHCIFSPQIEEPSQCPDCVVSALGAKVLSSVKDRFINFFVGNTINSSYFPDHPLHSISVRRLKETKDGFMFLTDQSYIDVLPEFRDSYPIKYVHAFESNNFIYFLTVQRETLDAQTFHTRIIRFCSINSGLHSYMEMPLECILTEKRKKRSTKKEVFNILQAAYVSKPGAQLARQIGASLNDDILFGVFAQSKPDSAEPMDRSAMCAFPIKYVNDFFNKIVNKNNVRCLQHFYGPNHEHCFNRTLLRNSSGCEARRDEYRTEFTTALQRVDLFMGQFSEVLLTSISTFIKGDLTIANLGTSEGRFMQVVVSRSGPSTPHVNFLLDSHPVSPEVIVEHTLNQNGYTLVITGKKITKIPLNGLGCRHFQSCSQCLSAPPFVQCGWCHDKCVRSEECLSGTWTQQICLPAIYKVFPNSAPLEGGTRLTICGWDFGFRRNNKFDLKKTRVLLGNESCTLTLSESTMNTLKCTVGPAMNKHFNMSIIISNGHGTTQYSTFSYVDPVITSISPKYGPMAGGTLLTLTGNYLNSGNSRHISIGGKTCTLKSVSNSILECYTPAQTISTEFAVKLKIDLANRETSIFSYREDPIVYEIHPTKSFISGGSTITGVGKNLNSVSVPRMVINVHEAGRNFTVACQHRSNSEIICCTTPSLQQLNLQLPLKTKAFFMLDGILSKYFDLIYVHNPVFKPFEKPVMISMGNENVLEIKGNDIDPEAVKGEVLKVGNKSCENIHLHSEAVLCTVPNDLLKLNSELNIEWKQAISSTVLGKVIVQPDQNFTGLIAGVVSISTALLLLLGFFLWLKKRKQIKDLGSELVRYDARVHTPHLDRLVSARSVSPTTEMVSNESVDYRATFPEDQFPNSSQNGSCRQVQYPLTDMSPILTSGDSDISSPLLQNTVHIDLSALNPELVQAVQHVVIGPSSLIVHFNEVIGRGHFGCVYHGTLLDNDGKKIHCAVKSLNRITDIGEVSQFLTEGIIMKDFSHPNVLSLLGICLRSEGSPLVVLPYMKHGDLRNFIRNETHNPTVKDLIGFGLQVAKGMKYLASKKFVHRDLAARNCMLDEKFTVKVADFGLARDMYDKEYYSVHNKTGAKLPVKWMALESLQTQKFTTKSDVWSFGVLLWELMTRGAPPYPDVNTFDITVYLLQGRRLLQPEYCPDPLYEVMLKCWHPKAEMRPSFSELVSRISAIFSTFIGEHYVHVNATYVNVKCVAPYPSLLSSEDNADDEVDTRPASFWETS

[43] = target: Serine/threonine-protein kinase MARK2 (Homo sapiens) (UniProt Q7KZI7)
[44] = target: Myosin light chain kinase 2, skeletal/cardiac muscle (Homo sapiens) (UniProt Q9H1R3)
[45] = target: Ribosomal protein S6 kinase alpha-1 (Homo sapiens) (UniProt Q15418); remark: listed apart in the source

Measured: residual activity

Serine/threonine-protein kinase B-raf (Homo sapiens), P15056 [V600E], sequence (P15056 whole entry V600E): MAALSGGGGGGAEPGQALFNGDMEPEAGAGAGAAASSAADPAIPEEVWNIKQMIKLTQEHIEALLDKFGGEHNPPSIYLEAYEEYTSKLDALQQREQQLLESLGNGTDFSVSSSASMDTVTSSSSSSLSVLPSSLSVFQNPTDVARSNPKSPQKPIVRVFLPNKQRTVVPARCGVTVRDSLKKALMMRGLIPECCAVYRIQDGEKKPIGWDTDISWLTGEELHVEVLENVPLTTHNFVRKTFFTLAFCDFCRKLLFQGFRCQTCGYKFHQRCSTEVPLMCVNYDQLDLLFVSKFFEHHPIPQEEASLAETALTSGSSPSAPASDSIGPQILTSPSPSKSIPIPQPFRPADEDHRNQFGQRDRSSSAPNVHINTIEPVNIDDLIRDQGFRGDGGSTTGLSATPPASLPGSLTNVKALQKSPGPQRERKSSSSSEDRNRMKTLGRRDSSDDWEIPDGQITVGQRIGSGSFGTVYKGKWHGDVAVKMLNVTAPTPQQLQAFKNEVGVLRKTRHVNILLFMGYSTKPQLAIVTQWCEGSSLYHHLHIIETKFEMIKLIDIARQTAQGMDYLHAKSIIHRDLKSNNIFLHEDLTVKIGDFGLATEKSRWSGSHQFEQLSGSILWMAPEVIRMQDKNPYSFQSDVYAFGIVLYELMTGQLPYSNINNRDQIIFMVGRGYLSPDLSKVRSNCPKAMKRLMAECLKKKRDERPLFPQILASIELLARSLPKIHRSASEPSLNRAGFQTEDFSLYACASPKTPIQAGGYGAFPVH

CSc1cccnc1N1CCN(Cc2nc3ccccc3[nH]2)CC1 [A-769]
inactive: [1] 100% | [2] 100% | [3] 85% | [4] 100% | [5] 100% | [6] 84% | [7] 98% | [8] 100% | [9] 94% | [10] 100% | [11] 92% | [12] 65% | [13] 96% | [14] 84% | [15] 100% | [16] 92% | [17] 74% | [18] 100% | [19] 100% | [20] 72% | [21] 75% | [22] 100% | [23] 100% | [24] 91% | [25] 89% | [26] 100% | [27] 100% | [28] 96% | [29] 96% | [30] 100% | [31] 100% | [32] 100% | [33] 100% | [34] 98% | [35] 83% | [36] 84% | [37] 100% | [38] 100% | [39] 89% | [40] 100% | [41] 100% | [42] 100% | [43] 100% | [44] 100% | [45] 100%

c1ccc(N2CCN(Cc3nc4ccccc4[nH]3)CC2)nc1 [ABT-724]
inactive: [1] 100% | [2] 100% | [3] 100% | [4] 100% | [5] 97% | [6] 100% | [7] 100% | [8] 100% | [9] 75% | [10] 92% | [11] 100% | [12] 100% | [13] 100% | [14] 100% | [15] 100% | [16] 100% | [17] 89% | [18] 100% | [19] 100% | [20] 83% | [21] 87% | [22] 100% | [23] 100% | [24] 100% | [25] 93% | [26] 96% | [27] 99% | [28] 100% | [29] 85% | [30] 96% | [31] 100% | [32] 85% | [33] 100% | [34] 100% | [35] 100% | [36] 59% | [37] 100% | [38] 89% | [39] 100% | [40] 100% | [41] 100% | [42] 100% | [43] 100% | [44] 91% | [45] 100%
